Laboratory results as given in PMC9694579 (Microorganisms, 2022).
Like-named read-outs stand apart in the source and are kept apart here.

Experiments:
in vitro [1] = details: human
in vitro [2] = details: human; remark: listed apart in the source
in vitro [3] = details: African green monkey
YFV [4] = experiment: microbe, parasite or virus in culture; assay type: cell-based, Yellow fever virus strain 17D; details: for EC50: read-out: Anti-YFV Activity (Huh-7) EC50; for EC90: read-out: Anti-YFV Activity (Huh-7) EC90
in vitro [5] = details: human; for CC50: Cytotoxicity CC50 Huh-7
Huh-7 cells [6] = details: human
[7] = test system: primary human hepatocytes
YFV [8] = experiment: microbe, parasite or virus in culture; assay type: cell-based; details: Yellow fever virus, RD, read-out: EC50, inhibition of YFV replication in RD cells
YFV [9] = details: cited from earlier work
in vitro [10] = details: human; remark: listed apart in the source
MDM = details: human
YFV 17D = details: mouse, in vivo
YFV [11] = experiment: microbe, parasite or virus in culture; assay type: cell-based, Yellow fever virus strain 17D; details: Yellow fever virus, Huh-7, 72 h, read-out: EC50 in 3D cultures
Huh-7 cells [12] = details: cited from earlier work
YFV [13] = experiment: microbe, parasite or virus in culture; assay type: cell-based, Yellow fever virus strain 17D; details: Yellow fever virus, Macrophage; for EC50: read-out: EC50, YFV replication in MDM
[14] = test system: primary human hepatocytes; details: cited from earlier work
YFV [15] = details: mouse, in vivo; cited from earlier work
Huh-7 cells [16] = details: human; remark: listed apart in the source
[17] = Yellow fever virus, Huh-7, 72 h

Which CC50 (in vitro [1]) does the source give for O=c1ccn([C@@H]2O[C@H](CO)[C@@H](O)C2(Cl)Cl)c(=O)[nH]1 [Compound 2] here?
Its CC50 is > 100 µM.

And the CC50 (in vitro [2])?
Its CC50 is > 100 µM.

And the CC50 (in vitro [3])?
Its CC50 is > 100 µM.

What about the EC50 (YFV [4]; [17]) of the same compound?
The EC50 was > 10000 nM.

And the EC90 (YFV [4]; [17])?
The EC90 was > 10 µM.

And the CC50 (in vitro [5])?
Its CC50 is > 100 µM.

What about the “NTP formation in Huh-7 cells” value (Huh-7 cells [6]) of the same compound?
Its value is 0.5 pmol / 10^6 cells.

Which CC50 (in vitro [1]) does the source give for CC(C)OC(=O)[C@H](C)NP(=O)(OC[C@H]1O[C@@H](n2ccc(=O)[nH]c2=O)C(Cl)(Cl)[C@@H]1O)Oc1ccccc1 (some centres unmarked) [Compound 3] here?
Its CC50 is > 100 µM.

What about the CC50 (in vitro [2]) of the same compound?
Its CC50 is > 100 µM.

What about the CC50 (in vitro [3]) of the same compound?
Its CC50 is > 100 µM.

And the EC50 (YFV [4]; [17])?
Its EC50 is 400 ± 500 nM.

And the EC90 (YFV [4]; [17])?
The EC90 was 3.2 ± 2.7 µM.

What about the CC50 (in vitro [5]) of the same compound?
The CC50 was > 100 µM.

What about the “NTP formation in primary human hepatocytes” value [7] of the same compound?
The value was 622.0 pmol / 10^6 cells.

And the “NTP formation in Huh-7 cells” value (Huh-7 cells [6])?
Its value is 39.7 pmol / 10^6 cells.

For O=c1ccn([C@@H]2O[C@H](CO)[C@@H](O)[C@]2(F)Cl)c(=O)[nH]1 [Compound 4], which CC50 (in vitro [1]) is on record?
The CC50 was > 100 µM.

And the CC50 (in vitro [2])?
The CC50 was > 100 µM.

What about the CC50 (in vitro [3]) of the same compound?
Its CC50 is > 100 µM.

And the EC50 (YFV [4]; [17])?
The EC50 was > 10000 nM.

And the EC90 (YFV [4]; [17])?
The EC90 was > 10 µM.

And the CC50 (in vitro [5])?
Its CC50 is > 100 µM.

And the “NTP formation in Huh-7 cells” value (Huh-7 cells [6])?
Its value is 0.5 pmol / 10^6 cells.

With CC(C)OC(=O)[C@H](C)NP(=O)(OC[C@H]1O[C@@H](n2ccc(=O)[nH]c2=O)[C@@](F)(Cl)[C@@H]1O)Oc1ccccc1 (some centres unmarked) [Compound 5] as the compound, how does the EC50 (YFV [8]) read?
The EC50 was 500 ± 200 nM.

And the “Reduction of CPE in RD cell line” value (YFV [9])?
The value was < 2%.

What about the CC50 (in vitro [1]) of the same compound?
The CC50 was > 100 µM.

And the CC50 (in vitro [2])?
The CC50 was > 100 µM.

And the CC50 (in vitro [3])?
The CC50 was > 100 µM.

And the EC50 (YFV [4]; [17])?
The EC50 was 400 ± 200 nM.

And the EC90 (YFV [4]; [17])?
Its EC90 is 6.5 ± 2.6 µM.

And the “NTP formation in primary human hepatocytes” value [7]?
Its value is 5245.0 pmol / 10^6 cells.

And the “NTP formation in Huh-7 cells” value (Huh-7 cells [6])?
The value was 866.2 pmol / 10^6 cells.

With O=c1ccn([C@@H]2O[C@H](CO)[C@@H](O)[C@@]2(F)Cl)c(=O)[nH]1 [Compound 6] as the compound, how does the CC50 (in vitro [1]) read?
Its CC50 is > 100 µM.

And the CC50 (in vitro [2])?
Its CC50 is > 100 µM.

And the CC50 (in vitro [3])?
Its CC50 is > 100 µM.

And the EC50 (YFV [4]; [17])?
Its EC50 is > 10000 nM.

What about the EC90 (YFV [4]; [17]) of the same compound?
Its EC90 is > 10 µM.

What about the CC50 (in vitro [5]) of the same compound?
The CC50 was > 100 µM.

For CC(C)OC(=O)[C@H](C)NP(=O)(OC[C@H]1O[C@@H](n2ccc(=O)[nH]c2=O)[C@](F)(Cl)[C@@H]1O)Oc1ccccc1 (some centres unmarked) [Compound 7], which CC50 (in vitro [1]) is on record?
The CC50 was > 100 µM.

What about the CC50 (in vitro [2]) of the same compound?
Its CC50 is > 100 µM.

And the CC50 (in vitro [3])?
Its CC50 is > 100 µM.

And the EC50 (YFV [4]; [17])?
The EC50 was > 10000 nM.

What about the EC90 (YFV [4]; [17]) of the same compound?
The EC90 was > 10 µM.

What does the source list for O=c1ccn([C@@H]2O[C@H](CO)[C@@H](O)[C@]2(F)Br)c(=O)[nH]1 [Compound 8]?
CC50 (in vitro [1]): > 100 µM; CC50 (in vitro [2]): > 100 µM; CC50 (in vitro [3]): > 100 µM; EC50 (YFV [4]; [17]): > 10000 nM; EC90 (YFV [4]; [17]): > 10 µM; CC50 (in vitro [5]): > 100 µM

Which viability at 100 µM (in vitro [10]) does the source give for CC(C)OC(=O)[C@H](C)N[P@](=O)(OC[C@H]1O[C@@H](n2ccc(=O)[nH]c2=O)[C@@](F)(Br)[C@@H]1O)Oc1ccccc1 [Compound 9] here?
The viability at 100 µM was 84.3 ± 0.9%.

And the CC50 (in vitro [1])?
Its CC50 is > 100 µM.

And the “Cytotoxicity in MDM” value (MDM)?
Its value is “no notable cytotoxicity up to 100 µM”.

And the “Immune cell infiltration into the liver” value (YFV 17D)?
The value was “significantly reduced”.

What about the “Impact on total circulating leukocytes” value (YFV 17D) of the same compound?
Its value is “no adverse impact”.

And the “Impact on weight loss” value (YFV 17D)?
Its value is “no adverse impact”.

And the “Levels of serum transaminase (ALT)” value (YFV 17D)?
Its value is “reduced”.

What about the “Percentage of mice with absent inflammatory cell infiltration in the liver” value (YFV 17D) of the same compound?
The value was 25%.

What about the “Percentage of mice with mild inflammatory cell infiltration in the liver” value (YFV 17D) of the same compound?
The value was 50%.

What about the “Percentage of mice with minimum inflammatory cell infiltration in the liver” value (YFV 17D) of the same compound?
Its value is 25%.

What about the “YFV genome copy levels (virus load) in liver” value (YFV 17D) of the same compound?
Its value is “significant reduction”.

What about the CC50 (in vitro [2]) of the same compound?
The CC50 was > 100 µM.

And the CC50 (in vitro [3])?
The CC50 was > 100 µM.

And the EC50 (YFV [11])?
Its EC50 is 3.2 µM.

What about the “NTP formed in Huh-7 cells” value (Huh-7 cells [12]) of the same compound?
Its value is 646 ± 107 pmol/10^6 cells.

And the EC50 (YFV [13])?
The EC50 was 400 ± 100 nM.

What about the EC90 (YFV [13]; read-out: EC90, YFV replication in MDM) of the same compound?
Its EC90 is 1500 ± 600 nM.

And the “NTP formed in primary hepatocytes” value [14]?
Its value is 3206 ± 247 pmol/10^6 cells.

And the EC50 (YFV [4]; [17])?
Its EC50 is 850 nM.

What about the EC90 (YFV [4]; [17]) of the same compound?
The EC90 was 7.8 ± 3.6 µM.

What about the EC50 (YFV [4]) of the same compound?
Its EC50 is 900 ± 800 nM.

What about the viability at 100 µM (in vitro [5]) of the same compound?
The viability at 100 µM was 87.1%.

What does the source list for O=c1ccn([C@@H]2O[C@H](CO)[C@@H](O)[C@@]2(F)Br)c(=O)[nH]1 [Compound 10]?
CC50 (in vitro [1]): > 100 µM; CC50 (in vitro [2]): > 100 µM; CC50 (in vitro [3]): > 100 µM; EC50 (YFV [4]; [17]): > 10000 nM; EC90 (YFV [4]; [17]): > 10 µM; CC50 (in vitro [5]): > 100 µM

With CC(C)OC(=O)[C@H](C)NP(=O)(OC[C@H]1O[C@@H](n2ccc(=O)[nH]c2=O)[C@](F)(Br)[C@@H]1O)Oc1ccccc1 (some centres unmarked) [Compound 11] as the compound, how does the CC50 (in vitro [1]) read?
The CC50 was > 100 µM.

And the CC50 (in vitro [2])?
The CC50 was > 100 µM.

And the CC50 (in vitro [3])?
The CC50 was > 100 µM.

And the EC50 (YFV [4]; [17])?
Its EC50 is > 10000 nM.

What about the EC90 (YFV [4]; [17]) of the same compound?
The EC90 was > 10 µM.

Which results are given for CC(C)OC(=O)[C@H](C)N[P@](=O)(OC[C@H]1O[C@@H](n2ccc(=O)[nH]c2=O)[C@](C)(F)[C@@H]1O)Oc1ccccc1 [Sofosbuvir, sofosbuvir, reference compound]?
CC50 (in vitro [1]): > 100 µM; Viral burden in sera, livers, kidneys and spleens (YFV [15]): failed to reduce viral burden; CC50 (in vitro [2]): > 100 µM; CC50 (in vitro [3]): > 100 µM; CC50 (Huh-7 cells [16]): 88.5 ± 11.6 µM; EC50 (YFV [13]): 400 ± 300 nM; EC50 (YFV [4]; [17]): 600 ± 600 nM; EC90 (YFV [4]; [17]): 3.5 ± 1.5 µM; CC50 (in vitro [5]): < 100 µM; NTP formation in primary human hepatocytes [7]: 2230.0 pmol / 10^6 cells; NTP formation in Huh-7 cells (Huh-7 cells [6]): 317.2 pmol / 10^6 cells
